Reference: ChEMBL document CHEMBL1133878, “Selectivity enhancement induced by substitution of non-natural analogues of arginine and lysine in arginine-based thrombin inhibitors” (Bioorg Med Chem Lett, 2001)

Legend:
[1] = target: T1, Serine protease 1 (Bos taurus, UniProt P00760); test: Binding affinity determined against trypsin by Dixon method
T1 sequence (P00760 whole entry): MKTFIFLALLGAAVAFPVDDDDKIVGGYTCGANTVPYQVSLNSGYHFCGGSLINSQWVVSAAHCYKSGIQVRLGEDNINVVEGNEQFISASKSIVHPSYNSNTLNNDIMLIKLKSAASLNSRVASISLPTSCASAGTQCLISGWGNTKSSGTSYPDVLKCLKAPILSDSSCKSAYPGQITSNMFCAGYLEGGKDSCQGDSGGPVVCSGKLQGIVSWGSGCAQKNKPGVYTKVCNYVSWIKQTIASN

[2] = target: Thrombin & trypsin (Homo sapiens) (UniProt P00734+P07477+P07478+P35030); test: Selectivity ratio (trypsin/thrombin) was calculated; format: protein assay
[3] = target: Prothrombin (Homo sapiens, UniProt P00734); test: Binding affinity determined against thrombin by Dixon method

Row | Ki [1] [µM] | Selectivity ratio [2] | Ki [3] [µM] | SMILES
1 | 922 | 962 | 0.958 | C/N=C(/N)NCCCC(NS(=O)(=O)c1cccc2c(N(C)C)cccc12)C(=O)N1CCCCC1 (stereo unspecified)
2 | 278 | 525 | 0.53 | CN(C)c1cccc2c(S(=O)(=O)NC(CCCN3CCN=C3N)C(=O)N3CCCCC3)cccc12 (stereo unspecified)
3 | 116 | 29.4 | – | CN(C)c1cccc2c(S(=O)(=O)NC(CCCNC3=NCCN3)C(=O)N3CCCCC3)cccc12 (stereo unspecified)
4 | 2.34 | 28.2 | 0.083 | CN(C)c1cccc2c(S(=O)(=O)NC(CCCN=C(N)N)C(=O)N3CCCCC3)cccc12 (stereo unspecified)
5 | 337 | 178 | 1.89 | CC/N=C(/N)NCCCC(NS(=O)(=O)c1cccc2c(N(C)C)cccc12)C(=O)N1CCCCC1 (stereo unspecified)
6 | – | – | > 10 | CN(C)c1cccc2c(S(=O)(=O)NC(CCCNC3=NCCCN3)C(=O)N3CCCCC3)cccc12 (stereo unspecified)
7 | – | – | > 10 | CNC(C)CCCCC(NS(=O)(=O)c1cccc2c(N(C)C)cccc12)C(=O)N1CCCCC1 (stereo unspecified)
